#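 96-well plates; 48 h exposure; 5 concentrations. Endpoints by linear interpolation between flanking doses. Not reached: highest tested concentration assigned. Here, GI50 denotes the concentration required for 50% inhibition of growth.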 Active and inactive are the calls of the source. Cut-off read from the data, not from the text of the source: active = GI50 up to about 1.1 µM and inactive = higher.
# Columns and labels:
# Test in all cases: DTP human tumour cell line panel, 48 h
# [1] = system: 786-0
# [2] = system: A498
# [3] = system: A549
# [4] = system: ACHN
# [5] = system: CAKI-1
# [6] = system: CCRF-CEM
# [7] = system: COLO 205
# [8] = system: DLD-1
# [9] = system: DMS-114
# [10] = system: EKVX
# [11] = system: HCC 2998
# [12] = system: HCT-116
# [13] = system: HCT-15
# [14] = system: HL-60
# [15] = system: HOP-18
# [16] = system: HOP-62
# [17] = system: HOP-92
# [18] = system: HT-29
# [19] = system: IGROV-1
# [20] = system: K562
# [21] = system: KM-20L2
# [22] = system: KM12
# [23] = system: LOX IMVI
# [24] = system: LXFL 529
# [25] = system: M14
# [26] = system: M19-MEL
# [27] = system: MOLT-4
# [28] = system: Malme-3M
# [29] = system: NCI-H226
# [30] = system: NCI-H23
# [31] = system: NCI-H460
# [32] = system: NCI-H522
# [33] = system: OVCAR-3
# [34] = system: OVCAR-4
# [35] = system: OVCAR-5
# [36] = system: OVCAR-8
# [37] = system: RPMI-8226
# [38] = system: RXF 393
# [39] = system: RXF 631
# [40] = system: SF-268
# [41] = system: SF-295
# [42] = system: SF-539
# [43] = system: SK-MEL-28
# [44] = system: SK-MEL-5
# [45] = system: SK-OV-3
# [46] = system: SN12C
# [47] = system: SNB-19
# [48] = system: SNB-75
# [49] = system: SNB-78
# [50] = system: SR
# [51] = system: SW-620
# [52] = system: TK-10
# [53] = system: U-251
# [54] = system: UACC-257
# [55] = system: UACC-62
# [56] = system: UO-31
# [57] = system: XF498
# [58] = system: DMS-273
# [59] = system: SK-MEL-2
smiles,measurement,setting,value
Cc1cccc(C(C)(C)C)c1NC(=O)C(=O)C(C(=O)/C=C\c1ccccc1)C1OC(=O)c2ccccc21 (stereo not drawn),GI50,[1],> 100 µM (inactive)
same,GI50,[2],> 100 µM (inactive)
same,GI50,[3],> 100 µM (inactive)
same,GI50,[4],> 100 µM (inactive)
same,GI50,[5],> 100 µM (inactive)
same,GI50,[6],> 100 µM (inactive)
same,GI50,[7],> 100 µM (inactive)
same,GI50,[8],> 100 µM (inactive)
same,GI50,[9],> 100 µM (inactive)
same,GI50,[10],> 100 µM (inactive)
same,GI50,[11],> 100 µM (inactive)
same,GI50,[12],> 100 µM (inactive)
same,GI50,[13],> 100 µM
same,GI50,[14],> 100 µM (inactive)
same,GI50,[15],> 100 µM (inactive)
same,GI50,[16],> 100 µM (inactive)
same,GI50,[17],> 100 µM (inactive)
same,GI50,[18],> 100 µM (inactive)
same,GI50,[19],> 100 µM (inactive)
same,GI50,[20],> 100 µM (inactive)
same,GI50,[21],> 100 µM (inactive)
same,GI50,[22],> 100 µM (inactive)
same,GI50,[23],> 100 µM (inactive)
same,GI50,[24],> 100 µM (inactive)
same,GI50,[25],> 100 µM (inactive)
same,GI50,[26],> 100 µM (inactive)
same,GI50,[27],> 100 µM (inactive)
same,GI50,[28],> 100 µM (inactive)
same,GI50,[29],> 100 µM (inactive)
same,GI50,[30],> 100 µM (inactive)
same,GI50,[31],> 100 µM (inactive)
same,GI50,[32],> 100 µM (inactive)
same,GI50,[33],> 100 µM (inactive)
same,GI50,[34],> 100 µM (inactive)
same,GI50,[35],> 100 µM (inactive)
same,GI50,[36],> 100 µM (inactive)
same,GI50,[37],> 100 µM (inactive)
same,GI50,[38],> 100 µM (inactive)
same,GI50,[39],> 100 µM (inactive)
same,GI50,[40],> 100 µM (inactive)
same,GI50,[41],> 100 µM (inactive)
same,GI50,[42],> 100 µM (inactive)
same,GI50,[43],> 100 µM (inactive)
same,GI50,[44],> 100 µM (inactive)
same,GI50,[45],> 100 µM (inactive)
same,GI50,[46],> 100 µM (inactive)
same,GI50,[47],> 100 µM (inactive)
same,GI50,[48],> 100 µM (inactive)
same,GI50,[49],> 100 µM (inactive)
same,GI50,[50],> 100 µM (inactive)
same,GI50,[51],> 100 µM (inactive)
same,GI50,[52],> 100 µM (inactive)
same,GI50,[53],> 100 µM (inactive)
same,GI50,[54],> 100 µM (inactive)
same,GI50,[55],> 100 µM (inactive)
same,GI50,[56],> 100 µM (inactive)
same,GI50,[57],> 100 µM (inactive)
c1cc(N(CCn2cccn2)CCn2cccn2)cc(N(CCn2cccn2)CCn2cccn2)c1,GI50,[1],> 100 µM (inactive)
same,GI50,[2],> 100 µM (inactive)
same,GI50,[3],> 100 µM (inactive)
same,GI50,[4],> 100 µM (inactive)
same,GI50,[5],> 100 µM (inactive)
same,GI50,[6],> 100 µM (inactive)
same,GI50,[7],> 100 µM (inactive)
same,GI50,[8],> 100 µM (inactive)
same,GI50,[9],> 100 µM (inactive)
same,GI50,[58],> 100 µM (inactive)
same,GI50,[10],> 100 µM (inactive)
same,GI50,[11],> 100 µM (inactive)
same,GI50,[12],> 100 µM (inactive)
same,GI50,[13],> 100 µM
same,GI50,[14],> 100 µM (inactive)
same,GI50,[16],> 100 µM (inactive)
same,GI50,[17],> 100 µM (inactive)
same,GI50,[20],> 100 µM (inactive)
same,GI50,[21],> 100 µM (inactive)
same,GI50,[22],> 100 µM (inactive)
same,GI50,[23],> 100 µM (inactive)
same,GI50,[24],> 100 µM (inactive)
same,GI50,[25],> 100 µM (inactive)
same,GI50,[26],> 100 µM (inactive)
same,GI50,[27],> 100 µM (inactive)
same,GI50,[31],> 100 µM (inactive)
same,GI50,[32],> 100 µM (inactive)
same,GI50,[33],> 100 µM (inactive)
same,GI50,[34],> 100 µM (inactive)
same,GI50,[36],> 100 µM (inactive)
same,GI50,[37],> 100 µM (inactive)
same,GI50,[38],> 100 µM (inactive)
same,GI50,[39],> 100 µM (inactive)
same,GI50,[40],> 100 µM (inactive)
same,GI50,[41],> 100 µM (inactive)
same,GI50,[43],> 100 µM (inactive)
same,GI50,[59],> 100 µM (inactive)
same,GI50,[44],> 100 µM (inactive)
same,GI50,[45],> 100 µM (inactive)
same,GI50,[46],> 100 µM (inactive)
same,GI50,[47],> 100 µM (inactive)
same,GI50,[48],> 100 µM (inactive)
same,GI50,[49],> 100 µM (inactive)
same,GI50,[50],> 100 µM (inactive)
same,GI50,[51],> 100 µM (inactive)
same,GI50,[52],> 100 µM (inactive)
same,GI50,[53],> 100 µM (inactive)
same,GI50,[54],> 100 µM (inactive)
same,GI50,[55],> 100 µM (inactive)
same,GI50,[56],> 100 µM (inactive)
same,GI50,[57],77.6 µM (inactive)
